Laboratory results reported in PMC7993833, “EDP-938, a novel nucleoprotein inhibitor of respiratory syncytial virus, demonstrates potent antiviral activities in vitro and in a non-human primate model” (PLoS Pathogens, 2021).
Entries after “also recorded” stand apart in the source; their conditions may differ. Where two headings read alike, the source gives them in different places.

Key:
[1] = tested on: GS-5806- and AZ-27-resistant RSV; experiment: Activity against GS-5806- and AZ-27-selected resistant viruses; type: cell-based, respiratory syncytial virus; settings: own resistant virus
[2] = tested on: recombinant RSV A2-line19F, N protein mutants; experiment: microbe, parasite or virus in culture; settings: human respiratory syncytial virus
[3] = tested on: recombinant RSV A2-line19F, N protein mutants
RSV [4] = experiment: Single-round synchronized infection time-of-addition, RT-qPCR endpoint; type: cell-based, respiratory syncytial virus; settings: HEp-2; MOI 3; cold-synchronized; 2x or 20x EC50; added 0-8 hpi; RT-qPCR at 24 hpi
Description: In order to help determine which step of the viral life cycle EDP-938 blocks multiple in vitro time-of-addition studies were performed. In the first study, EDP-938 was administered to cells infected with RSV-A Long at a MOI of 0.1 at 2 hours pre-infection (-2) or 2, 6, or 24 hours post-infection (hpi), and viral CPE evaluated 5 days later. […] A second time-of-addition study explored the ability of EDP-938 to protect not just a population experiencing a spreading infection, but individual cells already infected with RSV. Using a MOI of 3, which infects approximately 95% of all cells, virus was cold-adsorbed to the cells for 1 hour to synchronize infection before transfer to 37°C to induce fusion (marking the 0 hpi time point). Compound was added at times indicated and a 24 hpi RT-qPCR endpoint was employed to constrain viral replication cycle to a single complete cycle.
For single round infection synchronized infection 25,000 HEp-2 cpw seeded 1-day pre-infection. Plates brought to 4°C, viral infection at 3 MOI calculated for 30,000 cpw incubated at 4°C 1hr. Compound added to 0h plate and plates moved to 37°C. Compound added at 2h, 4h, 6h, and 8h post-incubation (when plates moved to 37°C) to appropriate plates. 24 hpi viral copies measured with RT-qPCR as described above.

[5] = tested on: RSV-B VR-955 EDP-938 resistant populations; experiment: Susceptibility of EDP-938 resistant RSV-B VR-955 populations; type: cell-based, respiratory syncytial virus
RSV-A Long [6] = experiment: RT-qPCR viral load assay, RSV-A Long in HEp-2 cells; type: cell-based; settings: human respiratory syncytial virus
RSV [7] = tested on: RSV; design: method as in PMID 31915807; settings: patients who achieved RSV-604 levels in excess of the EC90; cited from earlier work
RSV replicon = tested on: RSV replicon; design: method as in PMID 25451060; settings: compared to AZ-27; cited from earlier work
RSV-A Long [8] = experiment: CPE assay (ATPlite), RSV-A Long in HEp-2 cells; type: cell-based; settings: human respiratory syncytial virus
[9] = Plasma drug exposure in African Green monkey study; type: in vivo, African Green monkeys (Chlorocebus); settings: both sexes, in vivo, 100 mg/kg BID oral, read-out: mean plasma Ctrough
From the text: The African green monkey model was selected for EDP-938 in vivo studies for its higher level of viral replication versus cotton rats and BALB/c mice. […] In this previous trial, patients who achieved RSV-604 levels in excess of the EC90 experienced a 2.31 log reduction in viral load. […] The lack of antiviral activity observed with RSV-604 could be a function of relatively poor potency compared to EDP-938 (Fig 1) and/or insufficient tissue exposure. While in this study the animals were not sacrificed and thus the drug level in the lung could not be determined, plasma samples were taken at 12h after the last dose (Ctrough) to confirm drug exposure. […] It is reasonable to project that given the same dose or exposure EDP-938 should perform better than RSV-604 in RSV infected patients as well.
A study of EDP-938 and RSV-604 in the African Green monkey (AGM) animal model was performed by BIOQUAL, Inc (Rockville, Maryland). Methods were similar to those run in a study by Ispas et al.. Six (6) male and 6 female AGMs (Chlorocebus) of 4–5 kg were purchased from PrimGen (Hines, Illinois). Each animal was challenged with 2 x 10^5 PFU of RSV A2 viral inoculum (Virapur, San Diego, CA). Four animals (2 per sex) in each group were treated with EDP-938, RSV-604, or vehicle control (0.5% w/v methylcellulose). […]

RSV A2 = experiment: RSV-infected African Green monkey model, viral load; type: in vivo, African Green monkeys (Chlorocebus); settings: 100 mg/kg BID oral gavage; BAL
Description: African Green monkeys (AGMs) are permissive for human RSV infection and support a relatively higher level of viral replication compared to cotton rats and BALB/c mice. It has been previously validated as a non-human primate model for assessing in vivo efficacy of potential RSV vaccines and antiviral drugs. To evaluate the activity of EDP-938 in the AGM model, 4 animals each were treated with 100 mg/kg BID with EDP-938, RSV-604, or vehicle control via oral gavage starting 24 hours prior to RSV challenge and continuing for an additional 5 days. Samples were collected through bronchoalveolar lavage (BAL) and nasopharyngeal (NP) swab at various time points to determine viral load. […] Viral load in the NP swab samples was also determined.
A study of EDP-938 and RSV-604 in the African Green monkey (AGM) animal model was performed by BIOQUAL, Inc (Rockville, Maryland). Methods were similar to those run in a study by Ispas et al.. Six (6) male and 6 female AGMs (Chlorocebus) of 4–5 kg were purchased from PrimGen (Hines, Illinois). Each animal was challenged with 2 x 10^5 PFU of RSV A2 viral inoculum (Virapur, San Diego, CA). Four animals (2 per sex) in each group were treated with EDP-938, RSV-604, or vehicle control (0.5% w/v methylcellulose). The animals were dosed via oral gavage twice daily (every 12 hours), starting 24 hours prior to RSV challenge, and then continuing for an additional 5 days (6 total days of dose administration). Bronchoalveolar lavage (BAL) samples and nasopharyngeal (NP) swabs were collected for viral load determination.

RSV [10] = tested on: RSV; design: method as in PMID 19707346; settings: premature infants; monthly injection; cited from earlier work
[11] = HEp-2, recombinant RSV Wild-type (WT), HEp2

| Compound | activity against the virus selected for resistance with the same compound [1] | EC50 ([2]; HEp-2, recombinant RSV N K107N) [nM] | EC50 ([2]; HEp-2, recombinant RSV N K136R) [nM] | EC50 ([2]; HEp-2, recombinant RSV N L139I) [nM] | EC50 ([2]; HEp-2, recombinant RSV N M109I) [nM] | EC50 ([2]; HEp-2, recombinant RSV N M109K) [nM] | EC50 ([2]; HEp-2, recombinant RSV N M109T) [nM] | EC50 ([2]; HEp-2, recombinant RSV N N105D) [nM] | EC50 ([2]; HEp-2, recombinant RSV N S134T) [nM] | EC50 ([2]; HEp-2, recombinant RSV N V90A) [nM] | EC50 [2, 11] [nM] | EC50 Fold Change vs. WT ([3]; recombinant RSV N K107N) [fold] | EC50 Fold Change vs. WT ([3]; recombinant RSV N K136R) [fold] | EC50 Fold Change vs. WT ([3]; recombinant RSV N L139I) [fold] | EC50 Fold Change vs. WT ([3]; recombinant RSV N M109I) [fold] | EC50 Fold Change vs. WT ([3]; recombinant RSV N M109K) [fold] | EC50 Fold Change vs. WT ([3]; recombinant RSV N M109T) [fold] | EC50 Fold Change vs. WT ([3]; recombinant RSV N N105D) [fold] | EC50 Fold Change vs. WT ([3]; recombinant RSV N S134T) [fold] | EC50 Fold Change vs. WT ([3]; recombinant RSV N V90A) [fold] | further results |
| --- | --- | --- | --- | --- | --- | --- | --- | --- | --- | --- | --- | --- | --- | --- | --- | --- | --- | --- | --- | --- | --- |
| O=C(NC1CC1)c1cc2c(s1)-c1ccccc1N(C(=O)c1ccc(NC(=O)c3cccnc3N3CCC4(CC3)COC4)cc1)CC2 [AZ-27] | lost all ability to inhibit their resistant viruses |  |  |  |  |  |  |  |  |  |  |  |  |  |  |  |  |  |  |  |  |
| Cc1cn2nc([C@@H]3CCCCN3C(=O)c3cc(Cl)ccc3NS(C)(=O)=O)cc2nc1N1CC[C@H](N)C1 [GS-5806] | lost all ability to inhibit their resistant viruses | 0.09 ± 0.07 | 0.54 ± 0.34 | 0.17 ± 0.15 | 0.11 ± 0.09 | 0.06 ± 0.05 | 0.21 | 0.14 ± 0.2 | 0.23 ± 0.3 | 0.13 | 0.13 ± 0.12 | 0.7 | 4.2 | 1.3 | 0.8 | 0.5 | 1.6 | 1.1 | 1.8 | 1.0 | EC50 Fold Change vs. WT ([3]; recombinant RSV Wild-type (WT)): 1.0 fold; inhibition of viral RNA production by time of addition (RSV [4]): reduced when added at 0 hpi and completely lost when added at 8 hpi; EC50 Fold Change vs. WT ([5]; RSV-B VR-955 Population 1, N: M109K, L139Q (dual WT/mutant population)): 0.2 fold; EC50 Fold Change vs. WT ([5]; RSV-B VR-955 Population 2, N: M109T): 0.2 fold; EC50 Fold Change vs. WT ([5]; RSV-B VR-955 Wild-Type): 1 fold |
| O=C(Nc1ccccc1F)N[C@H]1N=C(c2ccccc2)c2ccccc2NC1=O [RSV-604] |  | 1810 | 4300 | 9550 | 514 ± 159 | 2870 | 1860 | 2700 | 2480 | 1420 | 1150 | 1.6 | 3.7 | 8.3 | 0.4 | 2.5 | 1.6 | 2.3 | 2.1 | 1.2 | EC50 (RSV-A Long [6]; HEp-2, 120 h): 1980 nM; EC50 (RSV-A Long [6]; HEp-2, read-out: EC50, inhibition of viral replication): ~2000 nM; reduction in viral load (RSV [7]): 2.31 log; effect in a replicon assay (RSV replicon): minimal effect; EC50 Fold Change vs. WT ([3]; recombinant RSV Wild-type (WT)): 1.0 fold; EC50 (RSV-A Long [8]; HEp-2, 120 h): 1430 nM; EC50 (RSV-A Long [8]; HEp-2, read-out: EC50, RSV-A Long-induced CPE): ~1400 nM; concentration at 12 h after the last dose [9]: 637 nM; effect on RSV viral load vs vehicle control (RSV A2): did not result in significant RSV viral load reduction; also recorded: unable to reduce viral load in a statistically significant manner; EC50 Fold Change vs. WT ([5]; RSV-B VR-955 Wild-Type): 1 fold |
| palivizumab: monthly injectable monoclonal antibody against RSV |  |  |  |  |  |  |  |  |  |  |  |  |  |  |  |  |  |  |  |  | relative reduction in RSV-associated hospitalizations (RSV [10]): approximately 55% |
